Our source for the EC50 and IC50 values is ChEMBL document CHEMBL3879901, “Substituted isoquinolin-1(2H)-ones, and methods of use thereof” (2012).

By EC50 is commonly meant the concentration needed to bring the measured effect to its halfway point. By IC50 is commonly meant the concentration at which inhibition is half-maximal.

The nature of experiment [1]: Antiproliferative activity against Balb/c mouse splenic B cells preincubated for 30 mins followed by LPS or F(ab')2 donkey anti-mouse IgM and recombinant mouse IL4 stimulation measured after 72 hrs by Alamar Blue reduction assay. Format: functional, cell-based. In general terms: The colour change of resazurin is a common sign of viable cells or microbes.
Another experiment deals with PI3K p110 beta/p85 alpha (Homo sapiens, UniProt P42338). The experiment is described as follows: Inhibition of N-terminal His6-tagged recombinant full-length human p110beta/untagged recombinant full length p85alpha expressed in baculovirus infected Sf21 cells using phosphatidylinositol as substrate in presence of gamma-32P-ATP after 5 mins by thin layer chromatographic method.
Chain of PI3K p110 beta/p85 alpha (P27986 whole entry): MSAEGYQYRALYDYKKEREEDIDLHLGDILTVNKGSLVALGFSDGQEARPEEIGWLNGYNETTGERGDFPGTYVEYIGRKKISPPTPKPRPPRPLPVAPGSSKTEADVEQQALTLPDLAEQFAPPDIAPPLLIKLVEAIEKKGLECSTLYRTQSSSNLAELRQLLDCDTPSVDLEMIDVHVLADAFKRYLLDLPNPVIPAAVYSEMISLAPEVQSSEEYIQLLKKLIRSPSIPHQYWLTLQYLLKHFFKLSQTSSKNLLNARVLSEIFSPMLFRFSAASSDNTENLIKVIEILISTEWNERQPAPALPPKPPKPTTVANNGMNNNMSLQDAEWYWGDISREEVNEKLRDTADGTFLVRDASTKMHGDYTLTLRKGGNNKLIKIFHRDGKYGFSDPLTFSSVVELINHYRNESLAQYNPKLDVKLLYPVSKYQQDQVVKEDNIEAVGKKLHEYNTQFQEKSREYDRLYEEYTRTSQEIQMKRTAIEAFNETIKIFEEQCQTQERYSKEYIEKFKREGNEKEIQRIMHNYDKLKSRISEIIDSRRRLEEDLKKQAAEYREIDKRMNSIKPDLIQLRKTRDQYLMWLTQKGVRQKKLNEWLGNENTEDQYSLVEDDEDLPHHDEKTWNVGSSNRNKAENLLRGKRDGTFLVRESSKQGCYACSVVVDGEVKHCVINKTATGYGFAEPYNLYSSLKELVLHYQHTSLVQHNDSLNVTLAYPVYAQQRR
Chain of PI3K p110 beta/p85 alpha (P42338 whole entry): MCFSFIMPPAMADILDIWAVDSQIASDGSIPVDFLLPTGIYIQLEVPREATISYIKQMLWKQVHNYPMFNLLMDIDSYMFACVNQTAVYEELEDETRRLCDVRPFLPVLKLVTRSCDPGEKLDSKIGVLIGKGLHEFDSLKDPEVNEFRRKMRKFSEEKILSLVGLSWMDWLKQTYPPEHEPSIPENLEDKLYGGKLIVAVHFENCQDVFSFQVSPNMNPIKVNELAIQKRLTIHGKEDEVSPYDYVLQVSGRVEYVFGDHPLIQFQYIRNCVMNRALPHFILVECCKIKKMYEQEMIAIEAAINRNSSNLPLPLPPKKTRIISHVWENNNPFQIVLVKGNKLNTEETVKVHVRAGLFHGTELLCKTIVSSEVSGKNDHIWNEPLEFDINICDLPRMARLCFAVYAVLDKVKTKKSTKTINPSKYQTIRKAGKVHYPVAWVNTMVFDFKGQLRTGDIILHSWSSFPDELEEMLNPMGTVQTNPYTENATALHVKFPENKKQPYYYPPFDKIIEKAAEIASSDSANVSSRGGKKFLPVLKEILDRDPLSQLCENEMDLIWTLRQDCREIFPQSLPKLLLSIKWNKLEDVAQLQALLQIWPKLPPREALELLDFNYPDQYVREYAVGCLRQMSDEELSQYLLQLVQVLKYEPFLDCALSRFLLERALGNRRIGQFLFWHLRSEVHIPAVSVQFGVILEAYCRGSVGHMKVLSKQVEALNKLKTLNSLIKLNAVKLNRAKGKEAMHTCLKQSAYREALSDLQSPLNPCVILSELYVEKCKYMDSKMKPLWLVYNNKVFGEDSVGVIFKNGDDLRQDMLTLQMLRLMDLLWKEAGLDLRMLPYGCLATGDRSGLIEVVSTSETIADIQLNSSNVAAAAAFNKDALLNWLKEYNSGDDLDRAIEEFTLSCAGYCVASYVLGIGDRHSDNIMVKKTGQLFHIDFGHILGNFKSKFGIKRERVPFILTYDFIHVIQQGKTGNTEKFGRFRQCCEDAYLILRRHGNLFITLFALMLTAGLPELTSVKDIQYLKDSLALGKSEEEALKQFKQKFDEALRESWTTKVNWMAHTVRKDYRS

Experiment [2] deals with PI3-kinase p110-alpha/p85-alpha (Homo sapiens, UniProt P42336). The experiment is described as follows: Inhibition of N-terminal His6-tagged recombinant full-length human p110alpha/untagged recombinant full length human p85alpha expressed in baculovirus infected Sf21 cells using phosphatidylinositol as substrate in presence of gamma-32P-ATP after 5 mins by thin layer chromatographic method.
Chain of PI3-kinase p110-alpha/p85-alpha (P27986 whole entry): as the sequence (P27986 whole entry) above
Chain of PI3-kinase p110-alpha/p85-alpha (P42336 whole entry): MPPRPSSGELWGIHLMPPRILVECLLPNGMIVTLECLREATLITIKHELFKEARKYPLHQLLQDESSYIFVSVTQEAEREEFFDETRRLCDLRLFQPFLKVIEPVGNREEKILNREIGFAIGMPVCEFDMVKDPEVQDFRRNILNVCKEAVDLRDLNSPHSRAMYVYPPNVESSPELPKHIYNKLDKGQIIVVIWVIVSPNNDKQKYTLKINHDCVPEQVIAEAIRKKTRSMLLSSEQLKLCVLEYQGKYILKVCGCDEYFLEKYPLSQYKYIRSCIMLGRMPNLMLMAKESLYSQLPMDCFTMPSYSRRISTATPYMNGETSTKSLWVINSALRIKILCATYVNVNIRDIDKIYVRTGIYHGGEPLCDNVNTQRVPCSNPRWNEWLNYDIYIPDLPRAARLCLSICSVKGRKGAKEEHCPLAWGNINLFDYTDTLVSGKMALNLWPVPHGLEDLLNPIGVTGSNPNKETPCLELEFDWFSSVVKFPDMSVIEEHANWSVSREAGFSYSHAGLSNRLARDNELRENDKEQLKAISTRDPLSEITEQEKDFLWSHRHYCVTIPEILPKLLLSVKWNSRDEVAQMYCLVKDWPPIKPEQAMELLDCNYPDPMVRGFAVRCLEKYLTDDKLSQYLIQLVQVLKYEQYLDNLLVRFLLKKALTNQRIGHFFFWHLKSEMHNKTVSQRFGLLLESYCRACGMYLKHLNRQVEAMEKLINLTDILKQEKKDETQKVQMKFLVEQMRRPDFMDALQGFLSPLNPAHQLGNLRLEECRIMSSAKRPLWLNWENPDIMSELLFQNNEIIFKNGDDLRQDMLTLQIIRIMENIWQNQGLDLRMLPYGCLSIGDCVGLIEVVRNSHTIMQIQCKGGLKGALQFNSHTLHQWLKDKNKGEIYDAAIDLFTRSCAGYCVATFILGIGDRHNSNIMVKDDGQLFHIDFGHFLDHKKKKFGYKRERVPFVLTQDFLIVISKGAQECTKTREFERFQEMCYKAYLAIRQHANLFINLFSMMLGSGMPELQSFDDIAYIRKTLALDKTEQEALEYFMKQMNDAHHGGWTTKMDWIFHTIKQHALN

Experiment [3] concerns the target PI3-kinase p110-delta/p85-alpha (Homo sapiens, UniProt O00329). The experiment is described as follows: Inhibition of N-terminal His6-tagged recombinant full-length human p110delta/untagged recombinant full length p85alpha expressed in baculovirus infected Sf21 cells using phosphatidylinositol as substrate in presence of gamma-32P-ATP after 5 mins by thin layer chromatographic method.

Chain of PI3-kinase p110-delta/p85-alpha (P27986 whole entry): as the sequence (P27986 whole entry) above
Chain of PI3-kinase p110-delta/p85-alpha (O00329 whole entry): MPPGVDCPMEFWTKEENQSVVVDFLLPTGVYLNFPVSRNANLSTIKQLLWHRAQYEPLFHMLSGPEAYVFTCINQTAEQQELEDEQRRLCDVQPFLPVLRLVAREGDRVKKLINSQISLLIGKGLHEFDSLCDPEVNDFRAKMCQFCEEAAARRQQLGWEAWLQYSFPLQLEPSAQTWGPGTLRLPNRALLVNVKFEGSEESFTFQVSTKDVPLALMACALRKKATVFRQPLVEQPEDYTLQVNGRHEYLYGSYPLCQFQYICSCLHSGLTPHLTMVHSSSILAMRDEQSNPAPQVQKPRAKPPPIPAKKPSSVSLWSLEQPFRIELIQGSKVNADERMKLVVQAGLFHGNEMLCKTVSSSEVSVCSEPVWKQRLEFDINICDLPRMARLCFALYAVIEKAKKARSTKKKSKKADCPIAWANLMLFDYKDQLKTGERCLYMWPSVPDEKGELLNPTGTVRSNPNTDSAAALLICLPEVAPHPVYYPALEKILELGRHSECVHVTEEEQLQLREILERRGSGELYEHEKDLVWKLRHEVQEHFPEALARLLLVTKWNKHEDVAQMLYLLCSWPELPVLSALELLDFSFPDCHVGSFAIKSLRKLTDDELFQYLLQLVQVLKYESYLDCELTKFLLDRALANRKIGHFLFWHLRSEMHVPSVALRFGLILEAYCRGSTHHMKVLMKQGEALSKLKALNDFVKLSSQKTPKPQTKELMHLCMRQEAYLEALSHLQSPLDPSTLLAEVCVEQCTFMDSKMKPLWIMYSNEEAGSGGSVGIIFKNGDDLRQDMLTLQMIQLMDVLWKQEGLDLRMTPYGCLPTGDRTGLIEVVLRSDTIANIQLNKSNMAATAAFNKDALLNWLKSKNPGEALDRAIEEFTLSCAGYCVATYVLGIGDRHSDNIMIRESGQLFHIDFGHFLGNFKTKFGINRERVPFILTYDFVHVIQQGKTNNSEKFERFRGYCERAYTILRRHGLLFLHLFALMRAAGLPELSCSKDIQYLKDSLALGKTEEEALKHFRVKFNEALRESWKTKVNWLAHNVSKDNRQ

Turning to `Cc1ccccc1-n1c(Cn2nc(-c3ccc(F)c(O)c3)c3c(N)ncnc32)cc2ccccc2c1=O`, the EC50 in experiment [1] was less than 0.1 µM. The IC50 is more than 10 µM on PI3K p110 beta/p85 alpha, more than 10 µM in experiment [2] and less than 0.1 µM in experiment [3].
With `COc1ccc(-c2nn(Cc3cc4cccc(C)c4c(=O)n3-c3ccccc3C)c3ncnc(N)c23)cc1OC`, in experiment [1], the 50% effective concentration (EC50) is less than 0.1 µM. Further, the IC50 on PI3K p110 beta/p85 alpha is more than 10 µM; in experiment [2], more than 10 µM; in experiment [3], less than 1 µM.
`Cc1cccc2cc(Cn3nc(-c4cccc(O)c4)c4c(N)ncnc43)n(C3CC3)c(=O)c12`: in experiment [1], the EC50 was less than 0.1 µM. For the same molecule, the IC50 on PI3K p110 beta/p85 alpha is less than 1 µM; in experiment [2], less than 1 µM; in experiment [3] it was less than 0.1 µM.
As to `Cc1cccnc1-n1c(Cn2nc(-c3ccc(Cl)c(O)c3)c3c(N)ncnc32)cc2cccc(C)c2c1=O`, the EC50 in experiment [1] is less than 0.1 µM. The half-maximal inhibitory concentration (IC50) was less than 10 µM on PI3K p110 beta/p85 alpha, more than 10 µM in experiment [2] and less than 0.1 µM in experiment [3].
`Cc1cccc2cc(Cn3nc(-c4cc(O)cc(F)c4)c4c(N)ncnc43)n(C3CC3)c(=O)c12`: the EC50 in experiment [1] was less than 0.1 µM. For the same molecule, the IC50 was less than 0.1 µM on PI3K p110 beta/p85 alpha, less than 1 µM in experiment [2] and less than 0.1 µM in experiment [3].
As to `Cc1cccc2cc(Cn3nc(-c4ccc(O)c(Cl)c4)c4c(N)ncnc43)n(-c3ccccc3F)c(=O)c12`, the EC50 in experiment [1] was less than 10 µM. Moreover, the results for the IC50 (at PI3K p110 beta/p85 alpha; in experiment [2]; in experiment [3]) were more than 10 µM, more than 10 µM and less than 1 µM, respectively.
As for `Cc1cccc2cc(Cn3nc(-c4cccc(O)c4)c4c(N)ncnc43)n(-c3ccccc3O)c(=O)c12`, in experiment [1], the concentration giving a half-maximal response (EC50) was less than 0.1 µM. The IC50 was less than 10 µM on PI3K p110 beta/p85 alpha, more than 10 µM in experiment [2] and less than 0.1 µM in experiment [3].
On to `CNC(=O)Nc1nc2ccc(-c3nn(Cc4cc5cccc(C)c5c(=O)n4-c4ccccc4C)c4ncnc(N)c34)cc2s1`, for which, in experiment [1], the EC50 was less than 0.1 µM. Further, the IC50 is less than 100 µM in experiment [2] and less than 0.1 µM in experiment [3].
On to `Cc1cccc2cc(Cn3nc(-c4cccc(O)c4)c4c(N)ncnc43)n(-c3ccccc3C(C)C)c(=O)c12`, for which the EC50 in experiment [1] was less than 0.1 µM. In addition, the half-inhibitory concentration (IC50) in experiment [2] was more than 10 µM; in experiment [3], less than 0.1 µM.
On to `CC(=O)Nc1nc2ccc(-c3nn(Cc4cc5cccc(C)c5c(=O)n4C4CC4)c4ncnc(N)c34)cc2s1`, for which the EC50 in experiment [1] was less than 0.1 µM. The IC50 was less than 0.1 µM on PI3K p110 beta/p85 alpha, less than 100 µM in experiment [2] and less than 0.1 µM in experiment [3].
Take `Cc1ccccc1-n1c(Cn2nc(-c3ccc4nc(N)sc4c3)c3c(N)ncnc32)cc2cccc(C)c2c1=O`: the concentration giving a half-maximal response (EC50) in experiment [1] was less than 1 µM. Also, the IC50 on PI3K p110 beta/p85 alpha was less than 10 µM; in experiment [2] it was less than 1 µM; in experiment [3] it was less than 0.1 µM.
For the molecule `CC(=O)Nc1nc2ccc(-c3nn(Cc4cc5cccc(C)c5c(=O)n4C(C)C)c4ncnc(N)c34)cc2s1`, the EC50 in experiment [1] is less than 0.1 µM. The IC50 is less than 10 µM at PI3K p110 beta/p85 alpha, less than 100 µM in experiment [2] and less than 0.1 µM in experiment [3].
As to `Cc1cccc2cc(Cn3nc(-c4cccc(O)c4)c4c(N)ncnc43)n(-c3ccccc3Cl)c(=O)c12`, in experiment [1], the 50% effective concentration (EC50) is less than 0.1 µM. Moreover, the IC50 on PI3K p110 beta/p85 alpha is less than 10 µM; in experiment [2] it was more than 10 µM; in experiment [3], less than 0.1 µM.
`CCc1ccccc1-n1c(Cn2nc(-c3cn[nH]c3)c3c(N)ncnc32)cc2cccc(C)c2c1=O`: the EC50 in experiment [1] is less than 0.1 µM. Moreover, the IC50 at PI3K p110 beta/p85 alpha is less than 10 µM; in experiment [2], less than 10 µM; in experiment [3], less than 0.1 µM.
Turning to `Cc1ccccc1-n1c(Cn2nc(-c3ccc(Cl)c(O)c3)c3c(N)ncnc32)cc2ccccc2c1=O`, the IC50 at PI3K p110 beta/p85 alpha is more than 10 µM; in experiment [2], more than 10 µM; in experiment [3], less than 0.1 µM.
Turning to `CC(=O)Nc1nc2ccc(-c3nn(Cc4cc5cccc(Cl)c5c(=O)n4C4CC4)c4ncnc(N)c34)cc2s1`, the EC50 in experiment [1] is less than 0.1 µM. Besides, the IC50 at PI3K p110 beta/p85 alpha is less than 0.1 µM; in experiment [2], less than 100 µM; in experiment [3] it was less than 0.1 µM.
`Cc1ccccc1-n1c(Cn2nc(-c3cnc4[nH]ccc4c3)c3c(N)ncnc32)cc2cccc(C)c2c1=O`: the EC50 in experiment [1] was less than 0.1 µM. Also, the 50% inhibitory concentration (IC50) in experiment [2] was more than 10 µM; in experiment [3], less than 0.1 µM.
Consider `Cc1cccc2cc(Cn3nc(I)c4c(N)ncnc43)n(-c3ccccc3C(C)C)c(=O)c12`, for which the EC50 in experiment [1] is less than 0.1 µM. Further, the IC50 was less than 10 µM on PI3K p110 beta/p85 alpha and less than 0.1 µM in experiment [3].
In the case of `Cc1ccccc1-n1c(Cn2nc(I)c3c(N)ncnc32)cc2ccccc2c1=O`, the concentration giving a half-maximal response (EC50) in experiment [1] is less than 1 µM. Moreover, the half-inhibitory concentration (IC50) in experiment [2] is more than 10 µM; in experiment [3], less than 1 µM.
In the case of `Cc1cccc2cc(C(C)Nc3ncnc4[nH]cnc34)n(-c3ccccc3F)c(=O)c12` (stereo unspecified), the 50% effective concentration (EC50) in experiment [1] is less than 0.1 µM. The IC50 at PI3K p110 beta/p85 alpha was less than 10 µM; in experiment [3], less than 0.1 µM.
On to `COc1ccc(-c2nn(Cc3cc4cccc(C)c4c(=O)n3-c3ccccc3C)c3ncnc(N)c23)cc1`, for which the EC50 in experiment [1] was less than 1 µM. Further, the 50% inhibitory concentration (IC50) in experiment [2] was more than 10 µM; in experiment [3] it was less than 1 µM.
Turning to `Cc1cccc2cc(Cn3nc(-c4ccc(F)c(O)c4)c4c(N)ncnc43)n(C3CCCC3)c(=O)c12`, the half-maximal inhibitory concentration (IC50) on PI3K p110 beta/p85 alpha is more than 10 µM; in experiment [2], more than 10 µM; in experiment [3] it was less than 0.1 µM.
Take `Cc1cccnc1-n1c(Cn2nc(I)c3c(N)ncnc32)cc2cccc(C)c2c1=O`: the half-maximal effective concentration (EC50) in experiment [1] is less than 1 µM. The 50% inhibitory concentration (IC50) in experiment [2] was more than 10 µM.
For `Cc1ccccc1-n1c(Cn2nc(C#C[C@@H](C)O)c3c(N)ncnc32)cc2ccccc2c1=O`, in experiment [1], the EC50 is less than 1 µM. Moreover, the IC50 in experiment [2] was more than 10 µM; in experiment [3], less than 1 µM.
As to `Cc1ccccc1-n1c(Cn2nc(-c3ccc(O)c(F)c3)c3c(N)ncnc32)cc2cccc(C)c2c1=O`, the EC50 in experiment [1] is less than 1 µM. The results for the 50% inhibitory concentration (IC50) in experiment [2] and in experiment [3] were more than 10 µM and less than 0.1 µM, respectively.
The corresponding values for `Cc1cccnc1-n1c(Cn2nc(-c3cc(O)cc(F)c3)c3c(N)ncnc32)cc2cccc(C)c2c1=O` are less than 0.1 µM, more than 10 µM and less than 0.1 µM.
For the molecule `CC(=O)Nc1nc2ccc(-c3nn(Cc4cc5cccc(C)c5c(=O)n4-c4cccc(F)c4)c4ncnc(N)c34)cc2s1`, the EC50 in experiment [1] was less than 0.1 µM. Further, the IC50 at PI3K p110 beta/p85 alpha was less than 10 µM; in experiment [3] it was less than 0.1 µM.
Take `Cc1ccccc1-n1c(Cn2nc(-c3ccc(F)c(O)c3)c3c(N)ncnc32)cc2cccc(F)c2c1=O`: the IC50 on PI3K p110 beta/p85 alpha was more than 10 µM; in experiment [2] it was more than 10 µM; in experiment [3], less than 0.1 µM.
Turning to `Cc1cccc2cc(Cn3nc(-c4cccc(Cl)c4)c4c(N)ncnc43)n(-c3ccccc3F)c(=O)c12`, the EC50 in experiment [1] is more than 10 µM. Also, the values for the IC50 (at PI3K p110 beta/p85 alpha; in experiment [3]) were more than 10 µM and less than 10 µM, respectively.
As for `Cc1ccccc1-n1c(Cn2nc(Br)c3c(N)ncnc32)cc2cccc(C)c2c1=O`, in experiment [1], the half-maximal effective concentration (EC50) is less than 1 µM. Further, the half-maximal inhibitory concentration (IC50) in experiment [2] is more than 10 µM; in experiment [3], less than 0.1 µM.
Turning to `Cc1ccccc1-n1c(Cn2nc(-c3cccc(O)c3)c3c(N)ncnc32)cc2cccc(F)c2c1=O`, the values for the IC50 (at PI3K p110 beta/p85 alpha; in experiment [2]; in experiment [3]) were more than 10 µM, more than 10 µM and less than 0.1 µM, respectively.
In the case of `Cc1ccccc1-n1c(Cn2nc(-c3ccn[nH]3)c3c(N)ncnc32)cc2cccc(C)c2c1=O`, the values for the IC50 (on PI3K p110 beta/p85 alpha; in experiment [2]; in experiment [3]) were more than 10 µM, more than 10 µM and less than 1 µM, respectively.
Take `Cc1ccccc1-n1c(Cn2nc(-c3ccc4cc[nH]c4c3)c3c(N)ncnc32)cc2cccc(C)c2c1=O`: the EC50 in experiment [1] is less than 1 µM. Besides, the IC50 was more than 10 µM in experiment [2] and less than 0.1 µM in experiment [3].
